{"source": "patent US9879303B2", "about": "“Chromogenic glucuronidase substrates and uses” (Glycosynth Limited, priority 2013, dated 2018)", "tested_on": "E. coli clinical isolates", "experiment": "screen of strains on agar plates (CPS ID 3 or Columbia agar)", "format": "cell-based", "set-up": "key to colour: Red, Green, Black or Purple mean strong colour; Red, Green, Black or Purple mean strong colour; Red, Green, Black or Purple mean strong colour; Red, Green, Black or Purple mean strong colour; +/− means less colour than strong; Tr means a trace of colour, less than +/−; — means no colour", "conditions": "for colour: 37° C. 18 hours", "description": "In order to obtain a fuller picture of the sensitivity of the substrates, they were screened with 100 different clinical isolates of E. coli in a liquid medium containing FAC. The isolates were chosen at random from the Microbiology Department, Freeman Hospital, Newcastle Upon Tyne, UK. The effectiveness of the new substrates was compared with three other media which all contained indoxyl-β-D-glucuronides. One was a commercial medium, CPS ID 3 (bioMérieux SA, Lyon, France). […] This medium was employed as a control. Among the β-D-glucuronidase producing strains of E. coli there is a large variation in the quantity of the enzyme produced and it is almost certain that the CPS ID 3 medium has been rigorously optimised to allow good growth of all the target organisms and maximum expression of the target enzymes. Therefore, two indoxyl glucuronides, X-β-D-glucuronide CHA salt and Rose-β-D-glucuronide CHA salt were also tested in a simple agar medium to allow a direct comparison of the sensitivity of these Indoxyl glucuronides when used in a medium that has not been optimised for the growth of the target organism. The comparison of the results for Rose-β-D-glucuronide and the CPS ID 3 medium was of particular significance as the commercial medium also uses Rose-β-D-glucuronide for the detection of E. coli. For consistency, the four glucuronides were all chosen as their CHA salts. As already stated, it is not anticipated that the salt form is critical to their performance. Currently. X-β-D-glucuronide is often used as either the CHA salt or the sodium salt. Brenner and colleagues [K. P. Brenner et al, Appl. Environ. Microbiol., 59, 3534-3544, (1993)] found no difference in the performance of the CHA and sodium salt forms with their application using indoxyl-β-D-glucuronide, neither in respect of colour development nor in the recovery of E. coli.\nThe two indoxyl glucuronides used produce insoluble endpoints following hydrolysis, as does the CPS ID 3 medium. It was therefore necessary to test these two substrates on agar plates. In contrast, catechol-β-D-glucuronide (1) and DHN-β-D-glucuronide (2b) give much more soluble endpoints best suited to liquid media and were therefore tested in a broth medium. Each broth was prepared using proteose peptone (Oxoid, Basingstoke, UK) (2 g), NaCl (1 g) and FAC (100 mg) in DI water (180 mL). This mixture was autoclaved and cooled to room temperature before being dispensed into bijoux (100×1.8 mL). Catechol β-D-glucuronide CHA salt (1) or DHN-β-D-glucuronide CHA salt (2b) (60 mg) were each dissolved in water (20 mL) and filtered to sterilize before being aseptically dispensed into successive bijoux (0.2 mL) containing the broth solution. The broth/substrate solutions were then inoculated with bacterial suspensions made up to 0.5 McFarland standard (2 μL per bijoux). X-β-D-glucuronide CHA salt (Glycosynth Ltd, Warrington, UK) (10 mg) was dissolved in NMP (200 μL). Rose-β-D-glucuronide CHA salt (Glycosynth Ltd, Warrington, UK) (20 mg) was dissolved in NMP (200 μL). These solutions were then added to Columbia agar (Oxoid, Basingstoke, UK) (100 mL) and inoculated with bacterial suspensions made up to 0.5 McFarland standard (1 μL). The plates and broths were incubated at 37° C. for 18 hours in air.", "key": {"[1]": {"conditions": "100 E. coli strains after 18 h incubation"}}, "note": "Counter-ions that a name gives are not always drawn."}
{"smiles": "O=C(O)[C@H]1O[C@@H](Oc2c[nH]c3cc(Cl)ccc23)[C@H](O)[C@@H](O)[C@@H]1O", "note": "[Rose-β-D-glucuronide CHA salt, 6-chloro-3-indolyl β-D-glucuronide]", "values": [{"measurement": "% Sensitivity", "setting": "[1]", "result": 81, "unit": "%"}, {"measurement": "Negative strains", "setting": "[1]", "result": 19}, {"measurement": "Positive strains", "setting": "[1]", "result": 81}, {"measurement": "colour", "setting": "E. coli 260262P", "result": "Red"}, {"measurement": "colour", "setting": "E. coli 260280Z", "result": "Red"}, {"measurement": "colour", "setting": "E. coli 260310H", "result": "Red"}, {"measurement": "colour", "setting": "E. coli 260313A", "result": "—"}, {"measurement": "colour", "setting": "E. coli 260316T", "result": "—"}, {"measurement": "colour", "setting": "E. coli 260327V", "result": "Red"}, {"measurement": "colour", "setting": "E. coli 260330Y", "result": "Red"}, {"measurement": "colour", "setting": "E. coli 260333P", "result": "—"}, {"measurement": "colour", "setting": "E. coli 260345F", "result": "Red"}, {"measurement": "colour", "setting": "E. coli 260348K", "result": "Red"}, {"measurement": "colour", "setting": "E. coli 260354W", "result": "Red"}, {"measurement": "colour", "setting": "E. coli 260364H", "result": "—"}, {"measurement": "colour", "setting": "E. coli 260370C", "result": "Red"}, {"measurement": "colour", "setting": "E. coli 260375E", "result": "Red"}, {"measurement": "colour", "setting": "E. coli 260390B", "result": "—"}, {"measurement": "colour", "setting": "E. coli 260396Z", "result": "Red"}, {"measurement": "colour", "setting": "E. coli 260398Q", "result": "Red"}, {"measurement": "colour", "setting": "E. coli 260400N", "result": "—"}, {"measurement": "colour", "setting": "E. coli 260401Q", "result": "Red"}, {"measurement": "colour", "setting": "E. coli 260402H", "result": "Red"}, {"measurement": "colour", "setting": "E. coli 260404W", "result": "Red"}, {"measurement": "colour", "setting": "E. coli 260405P", "result": "Red"}, {"measurement": "colour", "setting": "E. coli 260406A", "result": "—"}, {"measurement": "colour", "setting": "E. coli 260406Y", "result": "Red"}, {"measurement": "colour", "setting": "E. coli 260407F", "result": "Red"}, {"measurement": "colour", "setting": "E. coli 260408C", "result": "Red"}, {"measurement": "colour", "setting": "E. coli 260411Z", "result": "Red"}, {"measurement": "colour", "setting": "E. coli 260412Q", "result": "Red"}, {"measurement": "colour", "setting": "E. coli 260414H", "result": "Red"}, {"measurement": "colour", "setting": "E. coli 260415Y", "result": "Red"}, {"measurement": "colour", "setting": "E. coli 260416W", "result": "—"}, {"measurement": "colour", "setting": "E. coli 260417P", "result": "Red"}, {"measurement": "colour", "setting": "E. coli 260422Y", "result": "Red"}, {"measurement": "colour", "setting": "E. coli 260424P", "result": "Red"}, {"measurement": "colour", "setting": "E. coli 260425A", "result": "Red"}, {"measurement": "colour", "setting": "E. coli 260426F", "result": "Red"}, {"measurement": "colour", "setting": "E. coli 260428T", "result": "Red"}, {"measurement": "colour", "setting": "E. coli 260431N", "result": "Red"}, {"measurement": "colour", "setting": "E. coli 260432E", "result": "Red"}, {"measurement": "colour", "setting": "E. coli 260433H", "result": "Red"}, {"measurement": "colour", "setting": "E. coli 260434Y", "result": "Red"}, {"measurement": "colour", "setting": "E. coli 260435W", "result": "Red"}, {"measurement": "colour", "setting": "E. coli 260436P", "result": "Red"}, {"measurement": "colour", "setting": "E. coli 260437A", "result": "Tr. Red"}, {"measurement": "colour", "setting": "E. coli 260438F", "result": "Red"}, {"measurement": "colour", "setting": "E. coli 260439C", "result": "Red"}, {"measurement": "colour", "setting": "E. coli 260440S", "result": "Red"}, {"measurement": "colour", "setting": "E. coli 260441G", "result": "Red"}, {"measurement": "colour", "setting": "E. coli 260458Y", "result": "Red"}, {"measurement": "colour", "setting": "E. coli 260459W", "result": "Red"}, {"measurement": "colour", "setting": "E. coli 260463D", "result": "Red"}, {"measurement": "colour", "setting": "E. coli 260464G", "result": "Red"}, {"measurement": "colour", "setting": "E. coli 260471B", "result": "—"}, {"measurement": "colour", "setting": "E. coli 260478N", "result": "—"}, {"measurement": "colour", "setting": "E. coli 260479Q", "result": "Red"}, {"measurement": "colour", "setting": "E. coli 260480M", "result": "Red"}, {"measurement": "colour", "setting": "E. coli 260481J", "result": "Red"}, {"measurement": "colour", "setting": "E. coli 260483R", "result": "—"}, {"measurement": "colour", "setting": "E. coli 260485D", "result": "Red"}, {"measurement": "colour", "setting": "E. coli 260486L", "result": "Red"}, {"measurement": "colour", "setting": "E. coli 260492J", "result": "Red"}, {"measurement": "colour", "setting": "E. coli 260494B", "result": "Red"}, {"measurement": "colour", "setting": "E. coli 260495R", "result": "—"}, {"measurement": "colour", "setting": "E. coli 260497D", "result": "Red"}, {"measurement": "colour", "setting": "E. coli 260502G", "result": "Red"}, {"measurement": "colour", "setting": "E. coli 260503Z", "result": "Red"}, {"measurement": "colour", "setting": "E. coli 260504N", "result": "Red"}, {"measurement": "colour", "setting": "E. coli 260505Q", "result": "—"}, {"measurement": "colour", "setting": "E. coli 260506E", "result": "Red"}, {"measurement": "colour", "setting": "E. coli 260508Y", "result": "Red"}, {"measurement": "colour", "setting": "E. coli 260509W", "result": "Red"}, {"measurement": "colour", "setting": "E. coli 260510R", "result": "Red"}, {"measurement": "colour", "setting": "E. coli 260511X", "result": "Red"}, {"measurement": "colour", "setting": "E. coli 260514G", "result": "—"}, {"measurement": "colour", "setting": "E. coli 260515Z", "result": "Red"}, {"measurement": "colour", "setting": "E. coli 260521S", "result": "Red"}, {"measurement": "colour", "setting": "E. coli 260522Z", "result": "Red"}, {"measurement": "colour", "setting": "E. coli 260532S", "result": "Red"}, {"measurement": "colour", "setting": "E. coli 260533G", "result": "Red"}, {"measurement": "colour", "setting": "E. coli 260536Q", "result": "Red"}, {"measurement": "colour", "setting": "E. coli 260537E", "result": "—"}, {"measurement": "colour", "setting": "E. coli 260538H", "result": "—"}, {"measurement": "colour", "setting": "E. coli 260539Y", "result": "Red"}, {"measurement": "colour", "setting": "E. coli 260541R", "result": "Red"}, {"measurement": "colour", "setting": "E. coli 260545G", "result": "Red"}, {"measurement": "colour", "setting": "E. coli 260547N", "result": "Red"}, {"measurement": "colour", "setting": "E. coli 260548Q", "result": "Red"}, {"measurement": "colour", "setting": "E. coli 260549E", "result": "Red"}, {"measurement": "colour", "setting": "E. coli 260553X", "result": "—"}, {"measurement": "colour", "setting": "E. coli 260554D", "result": "Red"}, {"measurement": "colour", "setting": "E. coli 260555L", "result": "Red"}, {"measurement": "colour", "setting": "E. coli 260563B", "result": "Red"}, {"measurement": "colour", "setting": "E. coli 260564R", "result": "Red"}, {"measurement": "colour", "setting": "E. coli 260578D", "result": "—"}, {"measurement": "colour", "setting": "E. coli 2603121P", "result": "—"}, {"measurement": "colour", "setting": "E. coli 2604399E", "result": "Red"}, {"measurement": "colour", "setting": "E. coli O157 non-toxigenic", "result": "—"}, {"measurement": "colour of positive colonies", "setting": "in words", "result": "red colonies"}]}
